Type: physicochemical
Procedure: Substances B and C Evaporation Rate at Room Temperature Substances B and C were inserted in a thermostated chamber at room temperature and the substance weight/surface ratio for both of them was evaluated. Both substances B and C, alone or in mixture with a gel, were controlled and the loss of weight versus time was recorded. The resulting data of the test were interpolated so as to obtain two algorithms indicating, respectively, the evaporation rate of B and C. To this end two different interpolation methods were used. The algorithm adopted for the first interpolation method is: po/[…] uti (1) The algorithm adopted for the second interpolation method is: po/p=(A×T1⁄2)/(T1⁄2+min uti) (2) Parameters used in algorithms (1) and (2) have the following meaning: p: initial weight of the antibacterial substances expressed in g; po: weight of the antibacterial substances at time t, expressed in g; a, b, A: correlation parameters; and T1⁄2: half-life time of the antibacterial substances.

| Substance | parameter T1/2 (half-life time of the antibacterial substances) |
| --- | --- |
| silvester pine oil [B: silvester pine oil] | 854737 |
| lavender oil [C: lavender oil] | 46856 |
